Measurements from patent publication US6455516B1, “Method and compounds for use in the treatment of steroid induced states of the central nervous system” (priority 1998, dated 2002).
Entries after “also recorded” stand apart in the source; their conditions may differ.

Assays:
[1] = test system: slices from hippocampal CA1 region; test: Hippocampus slice in vitro model: induced population spike (POPSP) over the synapse in area CA1; assay type: cell-based, rat; conditions: for Blocking of the effect of 3alpha-hydroxy-5alpha-pregnan-20-one on the signal/POPSP / Blocking of the effect of 3alpha-hydroxy-5beta-pregnan-20-one on the signal/POPSP: given simultaneously, equimolar dose in the nM range; for Effect on the signal transmitted over the synapse / amplitude of the POPSP: steroid alone
From the text: In another preliminary study, the hippocampus slice model in the female rat of the luteal phase was used. This corresponds to the phase in humans when most of CNS effects are noticed in women with epilepsy and premenstrual syndrome.
In the hippocampus slice in vitro model the effect of steroids on an electrical signal over the synapse in the area CA1 was investigated. The stimulation is on one side of the synapse and a measurement of the response is made on the other side. A small droplet containing the steroid can be placed on top of the synapse and thus influence the synaptic transmission. Secondly a steroid can also be dissolved in the nutrient fluid perfusing the hippocampous slice. The steroid in the perfusion will influence the whole slice including the synapse under investigation.

[2] = Steroids tested by the inventors as agonist, blocker or antagonist to the sedative steroids (method not given)
[3] = test system: Sprague-Dawley rats; test: EEG-threshold method for deep anaesthesia ("silent second"), continuous intravenous infusion; assay type: in vivo, rat; conditions: for Intercept of regression line (anaesthetic steroid dosage needed for SS at zero 3beta-hydroxy-5alpha-pregnan-20-one): FIG. 1 / FIG. 2; for Optimal dose rate (gives the lowest threshold dose): rats
Method: The present invention is based on experiments in vivo, performed to confirm the blocking effect of 3beta-hydroxy-5alpha-pregnan-20-one on 3alpha-hydroxy-5alpha-pregnan-20-one in a preliminary study. 3alpha-hydroxy-5alpha-pregnan-20-one dissolved in 20% cyclodextrin was given to male Sprague-Dawley rats in an i.v. infusion dose rate of close to 3.0 mg/kg/min. This is the optimal dose rate for 3alpha-hydroxy-5alpha-pregnan-20-one. 3alpha-hydroxy-5alpha-pregnan-20-one and 3beta-hydroxy-5alpha-pregnan-20-one were dissolved, 50/50%, in water solution containing cyclodextrin. The control solution only contained 3alpha-hydroxy-5alpha-pregnan-20-one. The amount of 3alpha-hydroxy-5alpha-pregnan-20-one needed to obtain silent second, the anaesthesia criteria, was 21% higher with the combined solution compared to 3alpha-hydroxy-5alpha-pregnan-20-one alone, showing an interaction between 3alpha-hydroxy-5alpha-pregnan-20-one and 3beta-hydroxy-5alpha-pregnan-20-one in vivo. There was no overlap between the effect of the combined solution and control solution of 3alpha-hydroxy-5alpha-pregnan-20-one.
In further studies, performed after the priority date, the present invention was tested in in vivo experiments in which the blocking effect of 3beta-hydroxy-5alpha-pregnan-20-one was assessed by investigating the dosage of 3alpha-hydroxy-5alpha-pregnan-20-one and 3alpha-hydroxy-5beta-pregnan-20-one needed to induce a deep anaesthesia in the presence of increasing amounts of 3beta-hydroxy-5alpha-pregnan-20-one. An EEG-threshold method for deep anaesthesia was used. The method is developed to determine the sensitivity in the central nervous system (CNS) to the depressant drugs, mainly intravenous anaesthetic agents. Drugs are administered into the tail vein by continuous intravenous infusion while an Electro-Encephalo-Gram (EEG) is recorded. The infusion was immediately stopped and infusion time recorded, when the first burst of EEG suppression for one second or more is noted, the threshold criterion for a deep anaethesia, the “silent second” (SS). The appearance of SS is considered as a deeper anaesthesia state than the loss of righting reflex. The threshold dose (mg/kg) is calculated by multiplying the time to obtain SS with the dose rate (mg/kg/min). The threshold doses of the tested drug indicates its relative anaesthetic potency. The threshold doses are also related to CNS excitability. An increase or decrease in CNS excitability can be measured by a change in threshold doses of anesthetics. The dose rates which give the lowest threshold dose is considered as the optimal dose rate. The optimal dose rate and anaesthetic threshold dosage for 3alpha-hydroxy-5alpha-pregnan-20-one and […] at several times and the optimal dose rate is close to 3.0 mg/kg/min for both 3alpha-hydroxy-5alpha-pregnan-20-one and 3alpha-hydroxy-5beta-pregnan-20-one. The anaesthetic threshold dosage is for 3alpha-hydroxy-5alpha-pregnan-20-one between 6.5 to 8.0 mg/kg and for 3alpha-hydroxy-5beta-pregnan-20-one between 9 to 11 mg/kg depending on the age of the rats and the solvent used.
3alpha-hydroxy-5alpha-pregnan-20-one and […] dissolved in 20% cyclodextrin were given to Sprague-Dawley rats in an intravenous infusion at the optimal dose rate. 3beta-hydroxy-5alpha-pregnan-20-one was also dissolved in a 20% cyclodextrin solution and given simultaneously in a dosage 100%, 123% and 143% of the 3alpha-hydroxy-5alpha-pregnan-20-one dosage (n=11) and 70%, 100%, 123% and 143% of the 3alpha-hydroxy-5beta-pregnan-20-one dosage (n=16). […] The correlation between the dosage 3beta-hydroxy-5alpha-pregnan-20-one given and the dosage of 3alpha-hydroxy-5alpha-pregnan-20-one and 3alpha-hydroxy-5beta-pregnan-20-one needed to obtain the criterion of SS is highly significant (FIG. 1 and FIG. 2).

[4] = test system: Sprague-Dawley rats; conditions: a result found by several groups and described in earlier reports; cited from earlier work

Molecule	Blocking of the effect of 3alpha-hydroxy-5alpha-pregnan-20-one on the signal/POPSP ([1]; local application)	Blocking of the effect of 3alpha-hydroxy-5beta-pregnan-20-one on the signal/POPSP ([1]; local application)	Effect as agonist, blocker or antagonist to the sedative steroids [2]	Intercept of regression line (anaesthetic steroid dosage needed for SS at zero 3beta-hydroxy-5alpha-pregnan-20-one) [3] [mg/kg]	Optimal dose rate (gives the lowest threshold dose) ([3]; i.v. infusion) [mg/kg/min]	Effect on the signal transmitted over the synapse / amplitude of the POPSP ([1]; local application)	further results
3beta-hydroxy-pregnenolone	no blocking effect	no blocking effect	no effect either as an agonist or blocker or antagonist				
CC(=O)[C@H]1CC[C@H]2[C@@H]3CC[C@H]4C[C@@H](O)CC[C@]4(C)[C@H]3CC[C@]12C [3beta-hydroxy-5alpha-pregnan-20-one]	can be blocked; also recorded: totally inhibited	can be blocked; also recorded: can inhibit the effect					Correlation coefficient r: 3alpha-hydroxy-5alpha-pregnan-20-one dosage needed for SS vs 3beta-hydroxy-5alpha-pregnan-20-one dosage ([3]; FIG. 1, p<0.001, df=9): 0.90; Slope of regression line: 3alpha-hydroxy-5alpha-pregnan-20-one dosage needed for SS vs 3beta-hydroxy-5alpha-pregnan-20-one dosage ([3]; FIG. 1, slope p<0.001 different from 0): 0.43; Correlation coefficient r: 3alpha-hydroxy-5beta-pregnan-20-one dosage needed for SS vs 3beta-hydroxy-5alpha-pregnan-20-one dosage ([3]; FIG. 2, P<0.001, df=14): 0.78; Slope of regression line: 3alpha-hydroxy-5beta-pregnan-20-one dosage needed for SS vs 3beta-hydroxy-5alpha-pregnan-20-one dosage ([3]; FIG. 2, slope p<0.001 different from 0): 0.46; Effect on the anaesthetic effect of 3alpha-hydroxy-5beta-pregnan-20-one in vivo ([3]; given simultaneously i.v. at 70%, 100%, 123% and 143% of the 3alpha-hydroxy-5beta-pregnan-20-one dosage, dose dependent): can block the effect; also recorded: decreased the anaesthetic potency; Effect on the anaesthetic/CNS depressing effect of 3alpha-hydroxy-5alpha-pregnan-20-one in vivo ([3]; given simultaneously i.v. at 100%, 123% and 143% of the 3alpha-hydroxy-5alpha-pregnan-20-one dosage, dose dependent): can block the effect; also recorded: decreased the anaesthetic potency; Amount of 3alpha-hydroxy-5alpha-pregnan-20-one needed to obtain silent second, higher with combined solution compared to 3alpha-hydroxy-5alpha-pregnan-20-one alone ([3]; preliminary study, 50/50% with 3alpha-hydroxy-5alpha-pregnan-20-one in cyclodextrin solution, i.v. infusion, male Sprague-Dawley rats): 21%; Effect by itself on signal transmission over the synapse ([1]; alone, up to micromolar range, not different from vehicle): no effect on signal transmission; also recorded: no effect by itself; Blocking of the effect of 3alpha-hydroxy-5alpha-pregnan-20-one when perfused to the whole hippocampus slice ([1]; perfusion of whole slice): same blocking effect; Interaction with Muscimol (an agonist to GABA) on the GABA-A receptor ([1]; together with Muscimol, FIG. 5): does not interact with Muscimol; Effect by itself on CNS activities [4]: no effect on CNS activities
CC(=O)[C@H]1CC[C@H]2[C@@H]3CC[C@@H]4C[C@@H](O)CC[C@]4(C)[C@H]3CC[C@]12C [3beta-hydroxy-5beta-pregnan-20-one]	no blocking effect	no blocking effect	no effect either as a blocker or as an antagonist				
CC(=O)[C@H]1CC[C@H]2[C@@H]3CC[C@H]4C[C@H](O)CC[C@]4(C)[C@H]3CC[C@]12C [3alpha-hydroxy-5alpha-pregnan-20-one, reference compound]				6.9	~3.0	inhibition of the signal transmitted over the synapse	Reduction of the amplitude of the induced population spike ([1]; local application, FIG. 3): 45%
CC(=O)C1CCC2C3CC=C4CC(OS(=O)(=O)O)CCC4(C)C3CCC12C (stereo not shown) [Pregnenolone sulphate]		could neither block					Own effect on the signal in high micromolar concentrations ([1]; high micromolar concentrations): excitatory
CC(=O)[C@H]1CC[C@H]2[C@@H]3CC[C@@H]4C[C@H](O)CC[C@]4(C)[C@H]3CC[C@]12C [3alpha-hydroxy-5beta-pregnan-20-one, reference compound]				9.1	~3.0	inhibition of the signal transmitted over the synapse; also recorded: inhibits the amplitude of the POPSP	
